# Laboratory results as given in patent US8796256B2 (Janssen Pharmaceutica NV, priority 2010, dated 2014).
# Molecular target: T1, ERR1 (also known as ERR-α or ERR-1) (Homo sapiens, UniProt P11474)
# T1 sequence (P11474 193-421 limits assumed): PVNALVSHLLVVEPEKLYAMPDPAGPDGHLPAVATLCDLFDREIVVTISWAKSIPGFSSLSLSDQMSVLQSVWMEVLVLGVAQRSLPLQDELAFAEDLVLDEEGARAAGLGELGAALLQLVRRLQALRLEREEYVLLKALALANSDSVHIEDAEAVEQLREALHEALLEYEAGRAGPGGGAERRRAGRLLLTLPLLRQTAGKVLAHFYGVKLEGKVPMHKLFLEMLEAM
# Test: TR-FRET assay (disruption of co-activator peptide binding to ERR1 LBD)
# Format: biochemical
# Settings: 6 nM 6His-ERR1LBD, 6 nM GST-SRC-2 peptide; average of 3 independent experiments
# Procedure, shortened: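 His-tagged ERR1 ligand-binding domain and GST-labelled SRC-2 peptide, each 6 nM, equilibrated at 25° C for 4-18 h in Tris pH 8/Hepes/KCl/DTT/delipidated BSA buffer. Compound-induced loss of co-activator binding read as Eu cryptate→XL665 energy transfer; values from hyperbolic curve fits averaged over 3 independent runs.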
row,EC50 [nM],Structure (SMILES)
1,200,"CN(C)CCN1C(=O)S/C(=C\c2ccc3c(ccn3Cc3ccc(F)cc3C(F)(F)F)c2)C1=O [Compound 250, (5Z)-3-[2-(Dimethylamino)ethyl]-5-[(1-{[4-fluoro-2-(trifluoromethyl)phenyl]methyl}-1H-indol-5-yl)methylidene]-1,3-thiazolidine-2,4-dione]"
2,44,"COC1CCN(S(=O)(=O)NC(=O)CN2C(=O)S/C(=C\c3ccc4c(cnn4Cc4ccc(Cl)cc4C(F)(F)F)c3)C2=O)CC1 [Compound 58, 2-[(5Z)-5-({1-[4-chloro-2-(trifluoromethyl)benzyl]-1H-indazol-5-yl}methylidene)-2,4-dioxo-1,3-thiazolidin-3-yl]-N-[(4-methoxypiperidin-1-yl)sulfonyl]acetamide]"
3,65,"O=C1S/C(=C\c2ccc3c(cnn3Cc3ccc(C(F)(F)F)cc3C(F)(F)F)c2)C(=O)N1C[C@@H]1COCCN1 [Compound 197, (5Z)-5-({1-[2,4-Bis(trifluoromethyl)benzyl]-1H-indazol-5-yl}methylidene)-3-[(3R)-morpholin-3-ylmethyl]-1,3-thiazolidine-2,4-dione]"
4,24,"O=C1S/C(=C\c2ccc3c(c2)nnn3Cc2ccc(Cl)cc2C(F)(F)F)C(=O)N1Cc1c[nH]nn1 [Compound 262, (5Z)-5-({1-[4-Chloro-2-(trifluoromethyl)benzyl]-1H-benzotriazol-5-yl}methylidene)-3-(1H-1,2,3-triazol-4-ylmethyl)-1,3-thiazolidine-2,4-dione]"
5,71,"CN1CC[C@@H](N2C(=O)S/C(=C\c3ccc4c(cnn4Cc4ccc(C(F)(F)F)cc4C(F)(F)F)c3)C2=O)[C@H](F)C1 (relative stereo) [Compound 278, (5Z)-5-({1-[2,4-Bis(trifluoromethyl)benzyl]-1H-indazol-5-yl}methylidene)-3-(trans-3-fluoro-1-methylpiperidin-4-yl)-1,3-thiazolidine-2,4-dione]"
6,31,"CCN1C[C@@H](F)[C@H](N2C(=O)S/C(=C\c3ccc4c(cnn4Cc4ccc(Cl)cc4C(F)(F)F)c3)C2=O)C1 (relative stereo) [Compound 320, (5Z)-5-({1-[4-Chloro-2-(trifluoromethyl)benzyl]-1H-indazol-5-yl}methylidene)-3-[trans-1-ethyl-4-fluoropyrrolidin-3-yl]-1,3-thiazolidine-2,4-dione]"
7,1020,"O=C(O)CN1C(=O)S/C(=C\c2ccc3c(ccn3Cc3ccc(F)cc3C(F)(F)F)c2)C1=O [Compound 255, [(5Z)-5-({1-[4-Fluoro-2-(trifluoromethyl)benzyl]-1H-indol-5-yl}methylidene)-2,4-dioxo-1,3-thiazolidin-3-yl]acetic acid]"
8,6000,"COC(=O)CN1C(=O)S/C(=C\c2ccc3c(cnn3[C@@H]3CCc4cc(Cl)ccc43)c2)C1=O [Compound 177, Methyl [(5Z)-5-({1-[(1R)-5-chloro-2,3-dihydro-1H-inden-1-yl]-1H-indazol-5-yl}methylidene)-2,4-dioxo-1,3-thiazolidin-3-yl]acetate]"
9,4,"CS(=O)(=O)NN1C(=O)S/C(=C\c2ccc3c(cnn3Cc3ccc(Br)cc3C(F)(F)F)c2)C1=O [Compound 364, N-[(5Z)-5-({1-[4-Bromo-2-(trifluoromethyl)benzyl]-1H-indazol-5-yl}methylidene)-2,4-dioxo-1,3-thiazolidin-3-yl]methanesulfonamide]"
10,160,"COCCN1CCO[C@H](CN2C(=O)S/C(=C\c3ccc4c(cnn4Cc4ccc(Cl)cc4C(F)(F)F)c3)C2=O)C1 [Compound 189, (5Z)-5-({1-[4-Chloro-2-(trifluoromethyl)benzyl]-1H-indazol-5-yl}methylidene)-3-{[(2S)-4-(2-methoxyethyl)morpholin-2-yl]methyl}-1,3-thiazolidine-2,4-dione]"
11,20,"NN1C(=O)S/C(=C\c2ccc3c(cnn3Cc3ccc(Cl)cc3C(F)(F)F)c2)C1=O [Compound 355, (5Z)-3-Amino-5-({1-[4-chloro-2-(trifluoromethyl)benzyl]-1H-indazol-5-yl}methylidene)-1,3-thiazolidine-2,4-dione]"
12,50,"CN1CCN(CCCN2C(=O)S/C(=C\c3ccc4c(ccn4Cc4ccc(Cl)cc4C(F)(F)F)c3)C2=O)CC1 [Compound 245, (5Z)-5-[(1-{[4-Chloro-2-(trifluoromethyl)phenyl]methyl}-1H-indol-5-yl)methylidene]-3-[3-(4-methylpiperazin-1-yl)propyl]-1,3-thiazolidine-2,4-dione]"
13,16,"O=C1S/C(=C\c2ccc3c(cnn3Cc3ccc(C(F)(F)F)cc3C(F)(F)F)c2)C(=O)N1CCn1cncn1 [Compound 66, (5Z)-5-({1-[2,4-Bis(trifluoromethyl)benzyl]-1H-indazol-5-yl}methylidene)-3-[2-(1H-1,2,4-triazol-1-yl)ethyl]-1,3-thiazolidine-2,4-dione]"
14,12,"COc1ccc(Cn2ncc3cc(/C=C4\SC(=O)N(C5CCC(C(=O)NS(C)(=O)=O)CC5)C4=O)ccc32)c(C(F)(F)F)c1 (centres unmarked) [Compound 24, 4-[(5Z)-5-({1-[4-Methoxy-2-(trifluoromethyl)benzyl]-1H-indazol-5-yl}methylidene)-2,4-dioxo-1,3-thiazolidin-3-yl]-N-(methylsulfonyl) cyclohexanecarboxamide]"
15,70,"O=C(O)CN1C(=O)S/C(=C\c2ccc3c(cnn3[C@H]3CCc4cc(Cl)ccc43)c2)C1=O [Compound 173, [(5Z)-5-({1-[(1S)-5-Chloro-2,3-dihydro-1H-inden-1-yl]-1H-indazol-5-yl}methylidene)-2,4-dioxo-1,3-thiazolidin-3-yl]acetic acid]"
16,100,"O=C(CN1C(=O)S/C(=C\c2ccc3c(ccn3Cc3ccc(C(F)(F)F)cc3C(F)(F)F)c2)C1=O)N1CCOCC1 [Compound 241, (5Z)-5-[(1-{[2,4-Bis(trifluoromethyl)phenyl]methyl}-1H-indol-5-yl)methylidene]-3-(2-morpholin-4-yl-2-oxoethyl)-1,3-thiazolidine-2,4-dione]"
17,4,"COc1ccc(Cn2ncc3cc(/C=C4\SC(=O)N(CCN(C)C)C4=O)ccc32)c(C(F)(F)F)c1 [Compound 9, (5Z)-3-[2-(Dimethylamino)ethyl]-5-[(1-{[4-(methyloxy)-2-(trifluoromethyl)phenyl]-methyl}-1H-indazol-5-yl)methylidene]-1,3-thiazolidine-2,4-dione]"
18,140,"CCN1CC[C@@H](N2C(=O)S/C(=C\c3ccc4c(cnn4Cc4ccc(Cl)cc4C(F)(F)F)c3)C2=O)[C@H](F)C1 (single isomer, unassigned) [Compound 326, (5Z)-5-({1-[4-Chloro-2-(trifluoromethyl)benzyl]-1H-indazol-5-yl}methylidene)-3-[trans-1-ethyl-3-fluoropiperidin-4-yl]-1,3-thiazolidine-2,4-dione]"
19,170,"O=C1S/C(=C\c2ccc3c(cnn3Cc3ccc(F)cc3C(F)(F)F)c2)C(=O)N1[C@@H]1CNCC[C@H]1O (relative stereo) [Compound 281, (5Z)-5-({1-[4-Fluoro-2-(trifluoromethyl)-benzyl]-1H-indazol-5-yl}methylidene)-3-[trans-4-hydroxypiperidin-3-yl]-1,3-thiazolidine-2,4-dione]"
20,27,"O=C1S/C(=C\c2ccc3c(cnn3Cc3ccc(Cl)cc3C(F)(F)F)c2)C(=O)N1C[C@@H]1CN(CCO)CCO1 [Compound 187, (5Z)-5-({1-[4-Chloro-2-(trifluoromethyl)benzyl]-1H-indazol-5-yl}methylidene)-3-{[(2S)-4-(2-hydroxyethyl)morpholin-2-yl]methyl}-1,3-thiazolidine-2,4-dione]"
